# Data as given in patent publication US9237747B2, “Herbicidal compositions comprising 4-amino-3-chloro-5-fluoro-6-(4-chloro-2-fluoro-3-methoxyphenyl) pyridine-2-carboxylic acid or a derivative thereof and insecticides” (priority 2013, dated 2016).
# Like-named read-outs stand apart in the source and are kept apart here.
# Columns and labels:
# IPOHE = format: in vivo, Ipomoea hederacea
# Method: Seeds or nutlets of the desired test plant species were planted in a soil matrix prepared by mixing a loam or sandy loam soil (e.g., 28.6 percent silt, 18.8 percent clay, and 52.6 percent sand, with a pH of about 5.8 and an organic matter content of about 1.8 percent) and calcareous grit in an 80 to 20 ratio. The soil matrix was contained in plastic pots with a volume of 1 quart and a surface area of 83.6 square centimeters (cm^2). […] The plants were grown for 8-22 days in a greenhouse with an approximate 14 hour (h) photoperiod which was maintained at about 29° C. during the day and 26° C. during the night. Nutrients (Peters Excel® 15-5-15 5-Ca 2-Mg and iron chelate) were applied in the irrigation solution as needed and water was added on a regular basis. Supplemental lighting was provided with overhead metal halide 1000-Watt lamps as necessary. The plants were employed for testing when they reached the first through fourth true leaf stage.
# Treatments consisted of the acid or esters of 4-amino-3-chloro-6-(4-chloro-2-fluoro-3-methoxyphenyl)-5-fluoropyridine-2-carboxylic acid (Compound A), each formulated as an SC (suspension concentrate), and various insecticidal components alone and in combination. Forms of compound A were applied on an acid equivalent basis.
# For treatments comprised of formulated compounds, measured amounts of compounds were placed individually in 25 mL glass vials and diluted in a volume of 1.25% volume per volume (v/v) Agri-Dex® crop oil concentrate to obtain 12× stock solutions. […] Application solutions were prepared by adding an appropriate amount of each stock solution (e.g., 1 mL) and diluted to the appropriate final concentrations with the addition of […] of an aqueous mixture of 1.25% (v/v) crop oil concentrate so that the final spray solutions contained 1.25+/−0.05% (v/v) crop oil concentrate.
# As required, additional water and/or 97:3 v/v acetone/DMSO was added to individual application solutions so that the final acetone and DMSO concentrations of the application solutions being compared were 8.1% and 0.25%, respectively.
# All stock solutions and applications solutions were visually inspected for compound compatibility prior to application. Spray solutions were applied to the plant material with an overhead Mandel track sprayer equipped with 8002E nozzles calibrated to deliver 187 L/ha over an application area of 0.503 square meters (m^2) at a spray height of 18 to 20 inches (46 to 50 cm) above average plant canopy height. Control plants were sprayed in the same manner with the solvent blank.
# The treated plants and control plants were placed in a greenhouse as described above and watered by sub-irrigation to prevent wash-off of the test compounds. After approximately 3 weeks, the condition of the test plants as compared to that of the untreated plants was determined visually and scored on a scale of 0 to 100 percent where 0 corresponds to no injury or growth inhibition and 100 corresponds to complete kill.
# Colby's equation was used to determine the herbicidal effects expected from the mixtures (Colby, S. R. Calculation of the synergistic and antagonistic response of herbicide combinations. Weeds 1967, 15, 20-22.).
# The following equation was used to calculate the expected activity of mixtures containing two active ingredients, A and B: Expected=A+B−(A×B/100)
# LEFCH = assay: In-water applied weed control, transplanted paddy rice (greenhouse); format: in vivo, Leptochloa chinensis
# Method: Weed seeds or nutlets of the desired test plant species were planted in puddled soil (mud) prepared by mixing a shredded, non-sterilized mineral soil (50.5 percent silt, 25.5 percent clay, and 24 percent sand, with a pH of about 7.6 and an organic matter content of about 2.9 percent) and water at a 1:1 volumetric ratio. The prepared mud was dispensed in 365 mL aliquots into 16-ounce (oz.) non-perforated plastic pots with a surface area of 86.59 square centimeters (cm^2) leaving a headspace of 3 centimeters (cm) in each pot. Rice seeds were planted in Sun Gro MetroMix® 306 planting mixture, which typically has a pH of 6.0 to 6.8 and an organic matter content of about 30 percent, in plastic plug trays. Seedlings at the second or third leaf stage of growth were transplanted into 860 mL of mud contained in 32-oz. non-perforated plastic pots with a surface area of 86.59 cm^2 4 days prior to herbicide application. The paddy was created by filling the headspace of the pots with 2.5 to 3 cm of water. When required to ensure good germination and healthy plants, a fungicide treatment and/or other chemical or physical treatment was applied. The plants were grown for 4-22 days in a greenhouse with an approximate 14 h photoperiod which was maintained at about 29° C. during the day and about 26° C. during the night. Nutrients were added as Osmocote® (17:6:10, N:P:K+minor nutrients) at 2 grams (g) per 16-oz. pot and 4 g per 32-oz. pot. Water was added on a regular basis to maintain the paddy flood, and supplemental lighting was provided with overhead metal halide 1000-Watt lamps as necessary. The plants were employed for testing when they reached the first through fourth true leaf stage. […]
# Treatment requirements for each compound or herbicidal component were calculated based upon the rates being tested, the concentration of active ingredient or acid equivalent in the formulation, an application volume of 2 mL per component per pot, and an application area of 86.59 cm^2 per pot.
# For formulated compounds, a measured amount was placed in an individual 100 or 200 mL glass vial and was dissolved in a volume of 1.25% (v/v) AgriDex® crop oil concentrate to obtain application solutions. […]
# The treated plants and control plants were placed in a greenhouse as described above and water was added as needed to maintain a paddy flood. After approximately 3 weeks the condition of the test plants as compared with that of the untreated plants was determined visually and scored on a scale of 0 to 100 percent where 0 corresponds to no injury or growth inhibition and 100 corresponds to complete kill. […]
compound,measurement,setting,value
"COc1c(Cl)ccc(-c2nc(C(=O)O)c(Cl)c(N)c2F)c1F [Compound A Acid, 4-amino-3-chloro-6-(4-chloro-2-fluoro-3-methoxyphenyl)-5-fluoropyridine-2-carboxylic acid]",Visual Weed Control (%) - 21 DAA IPOHE Obs,IPOHE; 5.3 g ae/ha alone,10%
same,Visual Weed Control (%) - 21 DAA IPOHE Obs,IPOHE; 10.6 g ae/ha alone,10%
same,Visual Weed Control (%) - 21 DAA IPOHE Obs,"IPOHE; 21 DAA, 5.3 g ae/ha alone",10%
same,Visual Weed Control (%) - 21 DAA IPOHE Obs,"IPOHE; 21 DAA, 10.6 g ae/ha alone",10%
same,Visual Weed Control (%) - 21 DAA IPOHE Obs,"IPOHE; 21 DAA, 21.2 g ae/ha alone",25%
same,Visual Weed Control (%) - 21 DAA IPOHE Obs,IPOHE; 21.2 g ae/ha alone,25%
COc1c(Cl)ccc(-c2nc(C(=O)OCc3ccccc3)c(Cl)c(N)c2F)c1F [Compound A Benzyl Ester],Visual Weed Control (%) - 20 DAA IPOHE Obs,IPOHE; 4.38 g ae/ha alone,10%
same,Visual Weed Control (%) - 20 DAA IPOHE Obs,IPOHE; 8 g ae/ha alone,10%
same,Visual Weed Control (%) - 21 DAA IPOHE Obs,IPOHE; 8 g ae/ha alone,10%
same,Visual Weed Control (%) - 20 DAA IPOHE Obs,IPOHE; 8.75 g ae/ha alone,15%
same,Visual Weed Control (%) - 20 DAA IPOHE Obs,IPOHE; 16 g ae/ha alone,40%
same,Visual Weed Control (%) - 21 DAA IPOHE Obs,IPOHE; 16 g ae/ha alone,50%
same,Visual Weed Control (%) - 22 DAA IPOHE Obs,IPOHE; 16 g ae/ha alone,10%
same,Visual Weed Control (%) - 19 DAA IPOHE Obs,IPOHE; 8 g ae/ha alone,20%
same,Visual Weed Control (%) - 19 DAA IPOHE Obs,IPOHE; 16 g ae/ha alone,40%
same,Visual Weed Control (%) - 19 DAA IPOHE Obs,IPOHE; 32 g ae/ha alone,50%
same,Visual Weed Control (%) - 21 DAA IPOHE Obs,"IPOHE; 21 DAA, 4.38 g ae/ha alone",10%
same,Visual Weed Control (%) - 21 DAA IPOHE Obs,"IPOHE; 21 DAA, 8 g ae/ha alone",10%
same,Visual Weed Control (%) - 21 DAA IPOHE Obs,"IPOHE; 21 DAA, 8.75 g ae/ha alone",10%
same,Visual Weed Control (%) - 21 DAA IPOHE Obs,"IPOHE; 21 DAA, 17.5 g ae/ha alone",20%
same,Visual Weed Control (%) - 22 DAA IPOHE Obs,"IPOHE; 22 DAA, 16 g ae/ha alone",10%
same,Visual Weed Control (%) - 22 DAA IPOHE Obs,"IPOHE; 22 DAA, 32 g ae/ha alone",35%
same,Visual Weed Control (%) - 20 DAA IPOHE Obs,IPOHE; 32 g ae/ha alone,50%
same,Visual Weed Control (%) - 21 DAA IPOHE Obs,IPOHE; 32 g ae/ha alone,60%
same,Visual Weed Control (%) - 22 DAA IPOHE Obs,IPOHE; 32 g ae/ha alone,35%
same,Visual Weed Control (%) - 19 DAA LEFCH Obs,LEFCH; 8 g ae/ha alone,3%
same,Visual Weed Control (%) - 19 DAA LEFCH Obs,LEFCH; 16 g ae/ha alone,8%
same,Visual Weed Control (%) - 19 DAA LEFCH Obs,LEFCH; 32 g ae/ha alone,10%
"CC(c1ccc(C(F)(F)F)nc1)S(C)(=O)=NC#N (centres unmarked) [Sulfoxaflor, N-[methyloxido[1-[6-(trifluoromethyl)-3-pyridinyl]ethyl]-λ^4-sulfanylidene]cyanamide]",Visual Weed Control (%) - 19 DAA LEFCH Obs,LEFCH; 150 g ai/ha alone,0%
